System: Transport facilitation protein genes
Assay: DNA chip mRNA expression in yeast, transport facilitation protein genes (Table 5)
Assay type: cell-based, Saccharomyces cerevisiae S288C
Outline: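 In this screen, yeast in logarithmic growth are challenged for two hours with a toxic substance at a non-lethal inhibitory concentration. Their mRNA, converted to Cy3- or Cy5-labeled cDNA, hybridizes at 65° C. to a chip spanning every yeast gene, and expression is expressed as a ratio to untreated cells.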

SMILES: CCCCC[C@H](O)CC(=O)CCc1ccc(O)c(OC)c1 [(13), gingerol]
- The level of expressed mRNA in the presence of chemical substance/The level of expressed mRNA in the absence of chemical substance (yeast gene YHL036W): 1.5
- The level of expressed mRNA in the presence of chemical substance/The level of expressed mRNA in the absence of chemical substance (yeast gene YHL040C): 2.0
- The level of expressed mRNA in the presence of chemical substance/The level of expressed mRNA in the absence of chemical substance (yeast gene YHL047C): 3.8
- The level of expressed mRNA in the presence of chemical substance/The level of expressed mRNA in the absence of chemical substance (yeast gene YHR026W): 0.7
- The level of expressed mRNA in the presence of chemical substance/The level of expressed mRNA in the absence of chemical substance (yeast gene YHR048W): 1.1
- The level of expressed mRNA in the presence of chemical substance/The level of expressed mRNA in the absence of chemical substance (yeast gene YHR092C): 0.5
- The level of expressed mRNA in the presence of chemical substance/The level of expressed mRNA in the absence of chemical substance (yeast gene YHR094C): 0.7
- The level of expressed mRNA in the presence of chemical substance/The level of expressed mRNA in the absence of chemical substance (yeast gene YHR175W): 1.2
- The level of expressed mRNA in the presence of chemical substance/The level of expressed mRNA in the absence of chemical substance (yeast gene YIL006W): 0.8
- The level of expressed mRNA in the presence of chemical substance/The level of expressed mRNA in the absence of chemical substance (yeast gene YIL022W): 1.2
- The level of expressed mRNA in the presence of chemical substance/The level of expressed mRNA in the absence of chemical substance (yeast gene YIL056W): 1.5
- The level of expressed mRNA in the presence of chemical substance/The level of expressed mRNA in the absence of chemical substance (yeast gene YIL088C): 1.5
- The level of expressed mRNA in the presence of chemical substance/The level of expressed mRNA in the absence of chemical substance (yeast gene YJL212C): 1.0
- The level of expressed mRNA in the presence of chemical substance/The level of expressed mRNA in the absence of chemical substance (yeast gene YJR077C): 0.9
- The level of expressed mRNA in the presence of chemical substance/The level of expressed mRNA in the absence of chemical substance (yeast gene YJR095W): 0.8
- The level of expressed mRNA in the presence of chemical substance/The level of expressed mRNA in the absence of chemical substance (yeast gene YJR121W): 1.0
- The level of expressed mRNA in the presence of chemical substance/The level of expressed mRNA in the absence of chemical substance (yeast gene YKL016C): 1.3
- The level of expressed mRNA in the presence of chemical substance/The level of expressed mRNA in the absence of chemical substance (yeast gene YKL188C): 1.2
- The level of expressed mRNA in the presence of chemical substance/The level of expressed mRNA in the absence of chemical substance (yeast gene YKL217W): 1.2
- The level of expressed mRNA in the presence of chemical substance/The level of expressed mRNA in the absence of chemical substance (yeast gene YKL221W): 1.6
- The level of expressed mRNA in the presence of chemical substance/The level of expressed mRNA in the absence of chemical substance (yeast gene YKR039W): 1.3
- The level of expressed mRNA in the presence of chemical substance/The level of expressed mRNA in the absence of chemical substance (yeast gene YKR067W): 1.3
- The level of expressed mRNA in the presence of chemical substance/The level of expressed mRNA in the absence of chemical substance (yeast gene YKR105C): 2.5
- The level of expressed mRNA in the presence of chemical substance/The level of expressed mRNA in the absence of chemical substance (yeast gene YLL055W): 1.5
- The level of expressed mRNA in the presence of chemical substance/The level of expressed mRNA in the absence of chemical substance (yeast gene YLR081W): 0.6
- The level of expressed mRNA in the presence of chemical substance/The level of expressed mRNA in the absence of chemical substance (yeast gene YLR092W): 1.8
- The level of expressed mRNA in the presence of chemical substance/The level of expressed mRNA in the absence of chemical substance (yeast gene YLR295C): 0.8
- The level of expressed mRNA in the presence of chemical substance/The level of expressed mRNA in the absence of chemical substance (yeast gene YLR348C): 1.9
- The level of expressed mRNA in the presence of chemical substance/The level of expressed mRNA in the absence of chemical substance (yeast gene YLR378C): 1.6
- The level of expressed mRNA in the presence of chemical substance/The level of expressed mRNA in the absence of chemical substance (yeast gene YML116W): 0.8
- The level of expressed mRNA in the presence of chemical substance/The level of expressed mRNA in the absence of chemical substance (yeast gene YMR162C): 0.9
- The level of expressed mRNA in the presence of chemical substance/The level of expressed mRNA in the absence of chemical substance (yeast gene YNL055C): 2.4
- The level of expressed mRNA in the presence of chemical substance/The level of expressed mRNA in the absence of chemical substance (yeast gene YNR072W): 1.5
- The level of expressed mRNA in the presence of chemical substance/The level of expressed mRNA in the absence of chemical substance (yeast gene YOL119C): 1.6
- The level of expressed mRNA in the presence of chemical substance/The level of expressed mRNA in the absence of chemical substance (yeast gene YOL156W): 1.7
- The level of expressed mRNA in the presence of chemical substance/The level of expressed mRNA in the absence of chemical substance (yeast gene YOL158C): 1.4
- The level of expressed mRNA in the presence of chemical substance/The level of expressed mRNA in the absence of chemical substance (yeast gene YOL163W): 2.4
- The level of expressed mRNA in the presence of chemical substance/The level of expressed mRNA in the absence of chemical substance (yeast gene YOR035C): 2.5
- The level of expressed mRNA in the presence of chemical substance/The level of expressed mRNA in the absence of chemical substance (yeast gene YOR130C): 2.1
- The level of expressed mRNA in the presence of chemical substance/The level of expressed mRNA in the absence of chemical substance (yeast gene YOR153W): 11.8
- The level of expressed mRNA in the presence of chemical substance/The level of expressed mRNA in the absence of chemical substance (yeast gene YOR270C): 1.3
- The level of expressed mRNA in the presence of chemical substance/The level of expressed mRNA in the absence of chemical substance (yeast gene YOR273C): 2.6
- The level of expressed mRNA in the presence of chemical substance/The level of expressed mRNA in the absence of chemical substance (yeast gene YOR316C): 1.6
- The level of expressed mRNA in the presence of chemical substance/The level of expressed mRNA in the absence of chemical substance (yeast gene YOR332W): 2.2
- The level of expressed mRNA in the presence of chemical substance/The level of expressed mRNA in the absence of chemical substance (yeast gene YPL036W): 0.3
- The level of expressed mRNA in the presence of chemical substance/The level of expressed mRNA in the absence of chemical substance (yeast gene YPL134C): 1.0
- The level of expressed mRNA in the presence of chemical substance/The level of expressed mRNA in the absence of chemical substance (yeast gene YPL265W): 1.1
- The level of expressed mRNA in the presence of chemical substance/The level of expressed mRNA in the absence of chemical substance (yeast gene YPL271W): 1.2
- The level of expressed mRNA in the presence of chemical substance/The level of expressed mRNA in the absence of chemical substance (yeast gene YPR124W): 0.6
- The level of expressed mRNA in the presence of chemical substance/The level of expressed mRNA in the absence of chemical substance (yeast gene YPR194C): 1.0
